Patent publication EP2153845A1, “Endoglin peptides, vaccines and methods for preparing the same” (Julius-Maximilians-Universität Würzburg, priority 2008, dated 2010)
Values belong to the molecule of their own block, whether it stands above or below them.

Experiments:
[1] = test system: HLA-A2/k^b transgenic mice; experiment: immunization of mice and analysis of immune responses by murine IFN-γ ELISPOT; type: in vivo; settings: Fig. 6; for T cell IFN-γ responses after immunization of mice: HLA-A2/k^b transgenic mice vaccinated with peptides and incomplete Freund's adjuvant, spleen cells in ELISPOT; for immune responses in the mouse model in comparison to control experiments and parental epitopes: HLA-A2/k^b transgenic mice, modified versus parental peptides
Protocol: HLA-A2/k^b transgenic mice (deposited by Linda A. Sherman at MMRCC, University of North Carolina, Chapel Hill, USA) were immunized with a mixture of 5-6 CD105 peptides (5 µg/peptide) and incomplete Freund's adjuvant 7 times once weekly. Spleen cells were analyzed in a murine IFN-γ ELISPOT after in vitro stimulation. Cells were stimulated for six days with 200 U IL-2/ml and 10 µM peptide loaded, mitomycin C treated LPS blasts, generated by stimulation of HLA-A2k^b spleen cells with 25 µg/ml LPS (Sigma-Aldrich, Taufkirchen, Germany) and 7 µg/ml dextran sulfate for three days. Subsequently 3x10^5, 1x10^5, and 0.3x10^5 spleen cells were seeded with or without 10 µM peptide in RPMI 1640/10% FCS in duplicates in nitrocellulose-bottomed 96-well plates (MultiScreen MAIP N45, Millipore GmbH) coated with an IFN-γ specific coating antibody (Mabtech) and blocked with cell culture medium and incubated overnight. The development of the murine IFN-γ ELISPOT was done as described for the human ELISPOT, with the exception that PBS/0.05% Tween 20 was used as washing buffer and the biotinylated anti-mouse IFN-γ antibody (Mabtech, diluted in PBS/1% BSA) as detection antibody. Table 1: Sequence listing

[2] = test system: peripheral blood lymphocytes of melanoma patients; experiment: human IFN-γ ELISPOT after in vitro peptide stimulation of PBL; type: cell-based; settings: for specific immune responses / T cell activity in vitro (IFN-γ ELISPOT): PBL of melanoma patients prestimulated in vitro with 10 µM peptide, Figs. 4 and 5; for specific responses in peripheral blood of melanoma patients in comparison to control experiments and parental peptides: IFN-γ ELISPOT, modified versus parental peptides, Fig. 5
Protocol: To extend the sensitivity of the ELISPOT assay, PBL were stimulated once in vitro before analysis (McCutcheon et al., 1997). At day 0, PBL were thawed or freshly isolated from peripheral blood and plated in a cell concentration of 1x10^6/ml and 5 ml/well in 6-well plates (Greiner GmbH, Frickenhausen, Germany) in X-vivo medium (Cambrex Biosciences, Verviers, Belgium) with 10% heat inactivated human AB serum in the presence of 10 µM peptide (GeneScript Corporation, Piscataway, New Jersey, USA). On day 1 and 4 40 U IL-2/ml (Proleukin, Chiron GmbH, Munich, Gemany) were added to the culture. The cultured cells were tested for reactivity in ELISPOT on day 7.
The human IFN-γ ELISPOT assay was used to quantify peptide epitope-specific IFN-γ-releasing effector cells as described in Berke et al. 2000. Nitrocellulose-bottomed 96-well plates (MultiScreen MAIP N45, Millipore GmbH, Schwalbach, Germany) were activated with 35% ethanol, washed with PBS and coated with anti-IFN-γ antibody (1-D1 K, Mabtech, Hamburg, Germany). The wells were washed and blocked by X-vivo medium before adding 1x10^4 stimulator T2 cells loaded with or without 10 µM peptide and 3x10^5, 1x10^5 or 3x10^4 effector cells. After incubation overnight the wells were washed before addition of biotinylated secondary antibody (7-B6-1-Biotin, Mabtech, Hamburg, Germany). The plates were incubated for 2 h, washed, and streptavidine-enzyme conjugate (Streptavidin-ALP-PQ, Mabtech, Hamburg, Germany) was added. Incubation at room temperature for 1 h was followed by addition of enzyme substrate NBT/BCIP (Mabtech, Hamburg, Germany). The reaction was stopped by washing with tap water upon the appearance of dark purple spots. Spots were counted using the ImmunoSpot Series 2.0 Analyzer (CTL Cellular Technology Ltd., Schwäbisch Gmünd, Germany). The peptide-specific CTL frequency was calculated from the numbers of spot-forming cells. All assays were performed in duplicates. Responders were defined as having an average number of > 25 antigen-specific spots per 10^5 Cells (Spots with peptide - Spots without peptide).

[3] = biological target: T1, human leukocyte antigen A2 (HLA-A2) on the acid-stripped HLA-A2 positive cell line JY (human); experiment: competitive binding assay on acid-stripped JY cells, flow cytometry
T1 construct: whole, on cells; Empty, acid-stripped HLA-A2 on JY cells; also called HLA-A*0201

[4] = biological target: T1, human leukocyte antigen A2 (HLA-A2) on …; experiment: competitive binding assay vs fluorescein-labeled reference peptide on acid-stripped HLA-A2 positive JY cells, flow cytometry

Molecule: SEQ ID NO: 8 (LLHFYTVPI)
- T cell IFN-γ responses after immunization of mice [1]: high T cell IFN-γ responses
- specific immune responses / T cell activity in vitro (IFN-γ ELISPOT) [2]: induce T cell activity in vitro very efficiently

Molecule: SEQ ID NO: 3 (LILQGPPYV)
- T cell IFN-γ responses after immunization of mice [1]: high T cell IFN-γ responses
- specific immune responses / T cell activity in vitro (IFN-γ ELISPOT) [2]: induce T cell activity in vitro very efficiently

Molecule: SEQ ID NO: 16 (LLTAALWYV)
- T cell IFN-γ responses after immunization of mice [1]: high T cell IFN-γ responses
- immune responses in the mouse model in comparison to control experiments and parental epitopes [1]: enhanced immune responses
- specific responses in peripheral blood of melanoma patients in comparison to control experiments and parental peptides [2]: multiplied
- specific immune responses / T cell activity in vitro (IFN-γ ELISPOT) [2]: induce T cell activity in vitro very efficiently

Molecule: SEQ ID NO: 12 (SLVASFVEV)
- T cell IFN-γ responses after immunization of mice [1]: high T cell IFN-γ responses
- immune responses in the mouse model in comparison to control experiments and parental epitopes [1]: enhanced immune responses
- specific responses in peripheral blood of melanoma patients in comparison to control experiments and parental peptides [2]: multiplied
- specific immune responses / T cell activity in vitro (IFN-γ ELISPOT) [2]: induce T cell activity in vitro very efficiently

Molecule: SEQ ID NO: 7 (SVSEFLLQL)
- T cell IFN-γ responses after immunization of mice [1]: high T cell IFN-γ responses
- specific immune responses / T cell activity in vitro (IFN-γ ELISPOT) [2]: induce T cell activity in vitro very efficiently

Molecule: SEQ ID NO: 15 (FLIGALLTV)
- T cell IFN-γ responses after immunization of mice [1]: high T cell IFN-γ responses
- immune responses in the mouse model in comparison to control experiments and parental epitopes [1]: enhanced immune responses
- specific responses in peripheral blood of melanoma patients in comparison to control experiments and parental peptides [2]: multiplied
- specific immune responses / T cell activity in vitro (IFN-γ ELISPOT) [2]: induce T cell activity in vitro very efficiently

Molecule: SEQ ID NO: 10 (LLTAALWYI)
- T cell IFN-γ responses after immunization of mice [1]: high T cell IFN-γ responses
- specific immune responses / T cell activity in vitro (IFN-γ ELISPOT) [2]: induce T cell activity in vitro very efficiently

Molecule: SEQ ID NO: 1 (ALLLASCSL)
- specific immune responses / T cell activity in vitro (IFN-γ ELISPOT) [2]: induce T cell activity in vitro very efficiently

B1: hCD105 61-69 (peptide)
peptide: ILEVHVLFL
notes: Synthetic nonamer selected from human CD105 (endoglin); also called parental peptide
- binding result [3]: binds

B2: hCD105 11-19 (peptide)
peptide: ALLLASCSL
notes: as for B1
- binding result [3]: binds

Molecule: FLIGALLTV (also called AA 608: valine) [hCD105 600-608 (608V)]
- IC50 [4]: ≤ 3.5 µM

B3: hCD105 600-608 (peptide)
peptide: FLIGALLTA
notes: as for B1
- binding result [3]: binds

Molecule: LLLQGPPYV (also called AA 252: leucine) [hCD105 251-259 (252L)]
- IC50 [4]: ≤ 3.5 µM

Molecule: LLTAALWYV (also called AA 613: valine) [hCD105 605-613 (613V)]
- IC50 [4]: ≤ 3.5 µM

Molecule: LLHFYTVPV (also called AA541: valine) [hCD105 533-541 (541V)]
- IC50 [4]: ≤ 3.5 µM

Continued, values first:

- binding result [3]: binds
B4: hCD105 251-259 (peptide)
peptide: LILQGPPYV
notes: as for B1

- IC50 [4]: ≤ 3.5 µM
B5: hCD105 309-317 (310L, 317V) (peptide)
peptide: SLVASFVEV
notes: also called AA 310: leucine AA 317: valine

- binding result [3]: binds
B6: hCD105 482-490 (peptide)
peptide: SVSEFLLQL
notes: as for B1

- binding result [3]: binds
B7: hCD105 419-427 (peptide)
peptide: SMISNEAVV
notes: as for B1

- IC50 [4]: ≤ 3.5 µM
B8: hCD105 482-490 (483L, 490V) (peptide)
peptide: SLSEFLLQV
notes: also called AA 483: leucine AA 490: valine

- binding result [3]: binds
B9: hCD105 298-306 (peptide)
peptide: GLLGEARML
notes: as for B1

- binding result [3]: binds
B10: hCD105 309-317 (peptide)
peptide: SIVASFVEL
notes: as for B1

- binding result [3]: binds
B11: hCD105 605-613 (peptide)
peptide: LLTAALWYI
notes: as for B1

- binding result [3]: binds
B12: hCD105 533-541 (peptide)
peptide: LLHFYTVPI
notes: as for B1
